Conditions in all cases: saturating DL-infraluciferin (DL-iLH2) as co-substrate
In assay [1] the test system is T1, Eluc.
T1 construct: 10X N-terminal His tag, pET16b, E. coli BL21(DE3) pLysS, Ni-NTA purified; amplified from plasmid pLR6-Eluc
Put plainly: bioluminescence, ATP […] to […], Hanes-Woolf plot. In kind it is biochemical, Pyrearinus termitilluminans.

Assay [2] deals with WT Fluc (Photinus pyralis firefly luciferase, Ppy Fluc) (Photinus pyralis, UniProt P08659).
The target of assay [3] is WT Fluc (Photinus pyralis firefly luciferase, Ppy Fluc) (Photinus pyralis, UniProt P08659, E354R/D357Y).
Chain of WT Fluc (Photinus pyralis firefly luciferase, Ppy Fluc) (Photinus pyralis, UniProt P08659, E354R/D357Y) (P08659 whole entry E354R/D357Y): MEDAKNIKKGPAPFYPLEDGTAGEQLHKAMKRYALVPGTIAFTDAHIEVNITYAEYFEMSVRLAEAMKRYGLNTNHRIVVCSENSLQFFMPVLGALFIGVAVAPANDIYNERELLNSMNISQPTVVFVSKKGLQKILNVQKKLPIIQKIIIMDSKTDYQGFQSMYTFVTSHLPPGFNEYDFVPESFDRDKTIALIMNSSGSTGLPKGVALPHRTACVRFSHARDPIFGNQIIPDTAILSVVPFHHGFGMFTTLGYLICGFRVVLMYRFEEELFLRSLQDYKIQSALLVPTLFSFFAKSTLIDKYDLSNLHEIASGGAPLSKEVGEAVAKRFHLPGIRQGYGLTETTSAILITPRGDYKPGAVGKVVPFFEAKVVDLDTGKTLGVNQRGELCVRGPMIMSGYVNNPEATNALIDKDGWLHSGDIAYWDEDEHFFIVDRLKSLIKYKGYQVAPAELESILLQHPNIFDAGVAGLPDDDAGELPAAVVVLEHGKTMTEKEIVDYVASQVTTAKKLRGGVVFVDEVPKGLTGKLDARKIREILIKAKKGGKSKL

Chain of WT Fluc (Photinus pyralis firefly luciferase, Ppy Fluc) (Photinus pyralis, UniProt P08659) (P08659 whole entry): as the sequence (P08659 whole entry E354R/D357Y) above, with R354E, Y357D counted along it

Take `Nc1ncnc2c1ncn2[C@@H]1O[C@H](COP(=O)(O)OP(=O)(O)OP(=O)(O)O)[C@@H](O)[C@H]1O` [ATP]: the Km in assay [1] was 200 µM; in assay [2], 160 µM; in assay [3], “Kms for ATP in the presence of DL-iLH2 (ATP(iLH2))”.
